The subject of assay [1] is α2 I E318W. The assay is classed as binding, human.
Assay [2] deals with α2 I E318W. The assay is classed as binding, human. The protocol: (§1) I domain adhesion was determined colorimetrically using a solid-phase binding assay, modified slightly from our previous studies, [16], [32] and specified below. Wells were coated using 1 μg peptide in 100 μl 0.01 M acetic acid for 1 h at 22°C on Immulon-2 HB 96-well plates (Thermo Life Sciences, Basingstoke, UK), and blocked for 1 h with 200 μl of TBS containing 50 mg/ml bovine serum albumin). Wells were washed four times with 200 μl of the adhesion buffer (TBS with 1 mg/ml bovine serum albumin) before adding 100 μl of adhesion buffer containing 10 μg/ml of recombinant GST I domains in the presence of either 2 mM MgCl2 or EDTA for 1 h at room temperature. Wells were washed five times with 200 μl of adhesion buffer containing MgCl2, before adding 100 μl of adhesion buffer containing Amersham anti-GST-HRP conjugate (RPN1236; GE Healthcare) at 1:10,000 dilution for 1 h at room temperature. After washing, colour was developed using an ImmunoPure TMB Substrate Kit (Pierce) according to the manufacturer’s instructions. Replacing Mg^2+ with EDTA abolished binding (not shown). Data for short peptide binding were compared using 2-way ANOVA to establish the overall effect of the E318W mutation, and using repeated measures 1-way ANOVA for specific comparisons (Prism 5.0 for Mac, GraphPad).
The source holds these as a separate data set.

Assay [3] has as its system wild-type α2 I domain. Put plainly: Solid-phase binding assay of GST I domain to immobilised triple-helical peptides. Also on record: species or system human. The note with it: 1 μg peptide coated per well; 10 μg/ml GST I domain, 2 mM MgCl2; six paired experiments in triplicate (Fig. 2A). The protocol:
as §1

Assay [4] has as its target collagen-like triple-helical peptide [GPO]2GFOGER[GPO]3. In words: SEC; analytical SEC on Superdex 200 10/300 GL at 4°C, 100 mM Tris-HCl pH 7.5, 150 mM NaCl, 2 mM MgCl2; I domain 1 mg/ml with a greater than 2-fold molar excess of peptide, 30 min at 4°C before injection. (SEC sorts molecules by how far they enter the pores of the column.)
The test system of assay [5] is wild-type α2 I domain. Put plainly: Analytical size exclusion chromatography of I domain-collagen peptide complexes. The class given is binding, human. The protocol:
After incubation for 30 min at 4°C, the solutions were injected onto a Superdex 200 10/300 GL column and run at 4°C at a flow rate of 0.5 ml/min in SEC buffer.

The subject of assay [6] is α2 I E318W. The description is as above. The class given is binding, human. The protocol:
The lyophilised triple-helical peptides (GFOGER, GMOGER, GAOGER) were dissolved in 500 μl of 1 mg/ml stock solutions of either wild-type or E318W α2 I domains. The amount of peptide was chosen so as to yield a greater than 2-fold molar excess of peptide. After incubation for 30 min at 4°C, the solutions were injected onto a Superdex 200 10/300 GL column and run at 4°C at a flow rate of 0.5 ml/min in SEC buffer.

In assay [7] the target is T1, collagen-like triple-helical peptide [GPO]2GMOGER[GPO]3 (O denotes hydroxyproline; C-terminal amide).
T1 chain: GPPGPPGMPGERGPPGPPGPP
In words: SEC; analytical SEC on Superdex 200 10/300 GL at 4°C, 100 mM Tris-HCl pH 7.5, 150 mM NaCl, 2 mM MgCl2; I domain 1 mg/ml with a greater than 2-fold molar excess of peptide, 30 min at 4°C before injection. To be noted: both partners purified.

Where [8] appears, read: 1 μg peptide coated per well, 10 μg/ml GST I domain, 2 mM MgCl2, six paired experiments in triplicate (Fig. 2A).
Setting [9] is: solid-phase binding, shorter triple-helical peptides, A450, six paired experiments (Fig. 2A), ANOVA p<0.001.
Where [10] appears, read: SEC, Superdex 200, 4°C, peptide in >2-fold molar excess (Fig. 3).
Where [11] appears, read: SEC, Superdex 200, 4°C, peptide in >2-fold molar excess, 1 mg/ml I domain, 30 min incubation at 4°C, 100 mM Tris-HCl pH 7.5, 150 mM NaCl, 2 mM MgCl2.

Like-named read-outs stand apart in the source and are kept apart here.

As for GAOGER, in the assay on α2 I E318W [1], the “Change in affinity of E318W compared with wild-type, increasing dose of I domain” value (shortened to “Change in affinity … increasing dose of I domain”) is recorded as “substantially greater increase in affinity”.
Regarding GASGER, the “Change in binding of α2 I E318W compared with wild-type α2 I domain” value (from here on “Change in binding of α2 I E318W”) in the assay on α2 I E318W [2] is “several-fold increases”.
In the case of GFOGEK, in the assay on wild-type α2 I domain [3], the “Binding of wild-type α2 I domain to shorter triple-helical Gxx'GEx'' peptides (A450)” value (from here on “Binding of wild-type α2 I domain”) is “bound well”. In addition, the “Binding of α2 I E318W to shorter triple-helical Gxx'GEx'' peptides (A450)” value (“Binding of α2 I E318W … (A450)” below) in the assay with α2 I E318W [2] was “bound well”.
In the case of GFOGER [positive control], the “Binding of wild-type α2 I domain” value with wild-type α2 I domain [3] is given as “bound well”. For the same molecule, the “Change in affinity … increasing dose of I domain” value with α2 I E318W [1] (increasing concentrations of I domain on peptide coatings, single-site binding curves, 3 replicates in a single experiment (Fig. 2B)) is recorded as “modest increase in affinity”. Besides, in the assay on α2 I E318W [2] (setting [8]), the “Binding of α2 I E318W … (A450)” value is on record as “bound well”.
GFPGER: the “Binding of wild-type α2 I domain” value in the assay on wild-type α2 I domain [3] is on record as “bound well”. Further, in the assay on α2 I E318W [2], the “Binding of α2 I E318W … (A450)” value is recorded as “bound well”. Besides, the “Change in binding of α2 I E318W” value with α2 I E318W [2] (setting [9]) is “equally well”.
Consider GLKGEN, for which, in the assay with α2 I E318W [2], the “Change in binding of α2 I E318W” value is “several-fold increases”.
Turning to GLOGEA, in the assay on wild-type α2 I domain [3], the “Binding of wild-type α2 I domain” value is listed as “bound well”. Further, the “Binding of α2 I E318W … (A450)” value with α2 I E318W [2] is reported as “bound well”.
Regarding GLOGEN, the “Binding of wild-type α2 I domain” value in the assay on wild-type α2 I domain [3] is “bound well”. Moreover, the “Binding of α2 I E318W … (A450)” value in the assay on α2 I E318W [2] (setting [8]) was “bound well”.
Regarding GLOGER, the “Binding of wild-type α2 I domain” value in the assay on wild-type α2 I domain [3] is “bound well”. In addition, in the assay on α2 I E318W [2] (setting [8]), the “Binding of α2 I E318W … (A450)” value is reported as “bound well”.
GMOGER: in the assay on α2 I E318W [1], the “Change in affinity … increasing dose of I domain” value is “substantially greater increase in affinity”. The “Change in binding of α2 I E318W” value is “doubling in amplitude” in the assay on α2 I E318W [2] and “substantial increase” with α2 I E318W [2] (setting [9]).
For GQRGER, the “Change in binding of α2 I E318W” value in the assay with α2 I E318W [2] was “several-fold increases”.
Regarding GROGER, the “Binding of wild-type α2 I domain” value with wild-type α2 I domain [3] is “bound well”. In addition, the “Binding of α2 I E318W … (A450)” value in the assay on α2 I E318W [2] is “bound well”.
Take “GVOGEA [shorter triple-helical peptide with the α1β1-specific motif GVOGEA]”: the “Binding of wild-type α2 I domain” value in the assay on wild-type α2 I domain [3] is listed as “not recognised”. In the assay with α2 I E318W [2] (setting [8]), the “Binding of α2 I E318W … (A450)” value is recorded as “not recognised”.
For the molecule “His-tagged integrin α2 I domain E318W (for SEC and crystallisation) (from UniProt P17301 171-368) (domain or fragment)”, the stoichiometry N (I domains per triple-helical peptide) in assay [4] amounted to 2.
With “[GPO]2GFOGER[GPO]3 [GFOGER peptide, short homotrimeric collagen-like peptide [GPO]2GFOGER[GPO]3 used for SEC and crystallisation]”, the “Reduction in elution volume of wild-type α2 I domain on addition of peptide” value in the assay on wild-type α2 I domain [5] (setting [10]) turned out to be 0.6 mL. Further, the “Complex formation with wild-type α2 I in solution (I domain:peptide stoichiometry)” value with wild-type α2 I domain [5] (setting [11]) is “formed a 1:1 complex”. The “Apparent mass of the wild-type α2 I-peptide complex derived from the calibration of the SEC column” value in the assay with wild-type α2 I domain [5] (Superdex 200, 4°C (Fig. 3)) was 31 kDa. Also, in the assay with α2 I E318W [6] (setting [10]), the “Reduction in elution volume of α2 I E318W on addition of peptide” value came to 1.4 mL. Further, in the assay with α2 I E318W [6] (setting [11]), the “Complex formation with α2 I E318W in solution (I domain:peptide stoichiometry)” value was “appeared to form a 2:1 complex”. The “Apparent mass of the α2 I E318W-peptide complex from calibration of the SEC column” value in the assay on α2 I E318W [6] (Superdex 200, 4°C (Fig. 3), calculated mass 56.1 kDa) is recorded as 44 kDa.
For “wild-type integrin α2 I domain used in analytical SEC (domain or fragment)”, the stoichiometry N (I domain per triple-helical peptide) in assay [4] was determined as 1.

B1: His-tagged integrin α2 I domain E318W (for SEC and crystallisation) (domain or fragment, human)
chain: SLIDVVVVCDESNSIYPWDAVKNFLEKFVQGLDIGPTKTQVGLIQYANNPRVVFNLNTYKTKEEMIVATSQTSQYGGDLTNTFGAIQYARKYAYSAASGGRRSATKVMVVVTDGESHDGSMLKAVIDQCNHDNILRFGIAVLGYLNRNALDTKNLIKEIKAIASIPTERYFFNVSDWAALLEKAGTLGEQIFSIEGTV
notes: also called α2 I E318W; E318W I domain; source: E. coli Origami, purified (HisTrap FF, SEC on Superdex 75)
Regarding B1, the “stoichiometry N” value in assay [7] was 1 I domain per triple-helical peptide.

The values are drawn from PMC3726769 (PLoS ONE, 2013).
